Results as given in patent US10577399B2, “Modified lantibiotics and methods of making and using the modified lantibiotics” (priority 2016, dated 2020).
No end group written: not given here.

Legend:
B. subtilis PY79 cells = assay: Confocal microscopy localization of fluorescein labeled peptides; format: cell-based, Bacillus subtilis; conditions: 10 μg/mL, 15 minutes
Method: B. subtilis PY79 was grown and treated with fluorescein labeled peptide as previously described^39. A fresh plate of B. subtilis was used to inoculate THyex broth and incubated approximately 16 hours at 37° C. The culture was diluted 20-fold and placed back in the incubator for 3 hours at 37° C. Then, 100 μl of the culture was incubated with the antibiotic (10 μg/mL) for 15 minutes. The cells were pelleted and resuspended in 100 μl of phosphate buffer solution (PBS). The wash step was repeated three times before fixing with 1.6% formaldehyde in PBS. After fixation the cells were washed with PBS three more times and the remaining pellet was suspended in 50 μL of PBS. The sample (30 μL) was added to a slide and observed using an Olympus confocal microscope with a 100×/0.90 dry objective. A 488 nm argon laser was used to excite the fluorophore. For the competition assay, the bacterial culture was initially incubated with mu1140-COOH or native mutacin 1140 at a concentration of 10 μg/mL for 15 minutes, washed, and resuspended in fresh media. 10 μg/mL of fluorescein labeled nisin was then added for 15 minutes, before following the wash protocol previously stated.

C. accolens ATCC 49725 = assay: MIC/MLC assay against C. accolens ATCC 49725; format: cell-based; conditions: THyex broth with 1% Tween 80
S. pneumoniae AI16 = assay: MIC against clinical S. pneumoniae isolate AI16; format: cell-based, Streptococcus pneumoniae; conditions: 50% blood added
Method: (§1) Minimum Inhibitory Concentrations (MICs) were determined according to previously published protocol^31. A stock solution of the antibiotics tested was first suspended in 50% acetonitrile (ACN) at a concentration 640 μg/mL. This stock was subsequently diluted 2-fold until a final concentration 0.156 μg/mL was reached. Subsequently, 10 μl of each dilution was placed into a well on a 96 well microtiter plate. M. luteus ATCC 10240, S. pneumoniae, and B. subtilis PY79 were grown overnight in THyex at 37° C. Cultures were diluted in the morning to 0.1 OD600 and allowed to grow to 0.6 OD600. This culture was diluted a 100-fold in fresh THyex media and then 400 μl of this culture was added to 10 mL of fresh THyex. The suspension contains approximately 10^5 colony forming units (CFUs). The bacterial suspension (190 μL) was added to each well containing 10 μL of antibiotic suspension or solvent blank. […] Following the 15 minute pretreatment, 190 μL was added to each well as described above. The MIC is described as the […] concentration of antibiotic that prevented visible growth after 24 hours.
(§2) Selective activity and stability of analogs: Several core peptide mutants are provided that have improved activity against our ATCC strain of S. pneumoniae. […]

S. pneumoniae AI11 = assay: MIC against clinical S. pneumoniae isolate AI11; format: cell-based, Streptococcus pneumoniae; conditions: 50% blood added
Method: as §1, §2

S. pneumoniae AI14 = assay: MIC against clinical S. pneumoniae isolate AI14; format: cell-based, Streptococcus pneumoniae; conditions: 50% blood added
Method: as §1, §2

S. pneumoniae ATCC 27336 = format: cell-based, Streptococcus pneumoniae; conditions: Table 11
Method: as §1, with “hours. […]” for “hours.”

M. luteus ATCC 10240 [1] = format: cell-based, Micrococcus luteus; conditions: Table 11
Method: as §1
FIG. 11 illustrates the bioactivity of various core peptide mutants of mutacin 1130. The activity of the core mutant peptides is expressed as a ratio of the area of the zone of inhibition of each mutant strain to the area of the zone of inhibition of the wild-type strain against indicator strain of Micrococcus luteus. […] The deferred antagonism assay is an overlay assay of the indicator strain onto plates containing heat killed colonies of the mutacin producer strain after growing overnight. Core peptide mutants having inhibitory activity were isolated and the purified products were further evaluated by a standard minimum inhibitory concentration (MIC) assay.

S. pneumoniae AI8 = assay: MIC against clinical S. pneumoniae isolate AI8; format: cell-based, Streptococcus pneumoniae; conditions: 50% blood added
Method: as §1, §2

S. aureus ATCC 25923 = assay: MIC/MLC assay against S. aureus; format: cell-based, Staphylococcus aureus; conditions: Table 11
C. accolens KPL 1818 = assay: MIC/MLC assay against C. accolens KPL 1818; format: cell-based; conditions: THyex broth with 1% Tween 80
M. luteus ATCC 10240 [2] = assay: Deferred antagonism (overlay) assay, zone of inhibition; format: cell-based, Micrococcus luteus; conditions: relative to wild-type strain
Method: The deferred antagonism assay was performed as previously described^39. S. mutans strains were grown overnight in THyex broth at 37° C. The cultures were diluted to 0.1 OD OD600 and grown to mid-logarithmic phase before diluting to 0.05 OD600. Then, 2 μl of the cultures were spotted on THyex plates in duplicates of triplicates. The wild-type S. mutans JH1140 and S. mutans ΔmutA were used as positive and negative controls for activity, respectively. The plates were incubated for 18 hours in a candle jar at 37° C. After incubation, the strains were heat killed at 65° C. for 90 minutes. Fresh M. luteus grown overnight at 37° C. on THyex plates were used to inoculate pre-warmed THyex broth. The culture was grown to 0.6 to 0.8 OD before diluting to 0.2 OD600. The culture was further diluted 25-fold in melted (42° C.) THyex top agar. Approximately 5 mL of the top agar solution was spread on the heat killed bioassay plates and allowed to cool for 10 minutes. The plates were then placed in the incubator (at 37° C.) for 18 hours.
Streptococcus mutans ATCC 55676 (wild-type) and the mutants that were at an OD600 of 0.2 were spotted in triplicates on a pre-warmed THyex agar plate (150×15 mm) and allowed to dry. This assay was performed in this manner to ensure that each sample had the same colony size for comparing zones of inhibition. The plate was incubated for 24 hours then placed in an oven at 50° C. for thirty minutes to kill the bacteria before the indicator strain was overlaid. Heat killing the bacteria prevents any further antimicrobial compound production so that results seen are from single day incubation. Zone diameter was measured in millimeters across the plate and compared to wild-type (i.e. zone I for ATCC compared to zone I of Trp4Ala, etc.).

S. pneumoniae AI17 = assay: MIC against clinical S. pneumoniae isolate AI17; format: cell-based, Streptococcus pneumoniae; conditions: 50% blood added
Method: as §1, §2

Substance	in vivo localization pattern of fluorescein labeled peptide (B. subtilis PY79 cells)	in vivo localization pattern of fluorescein labeled peptide (B. subtilis PY79 cells; listed as Fluorescein conjugated nisin)	C. accolens ATCC 49725 MIC (C. accolens ATCC 49725) [micrograms per milliliter]	C. accolens ATCC 49725 MLC (C. accolens ATCC 49725) [micrograms per milliliter]	MIC S. pneumoniae AI16 (S. pneumoniae AI16) [micrograms per milliliter]	MIC S. pneumoniae AI11 (S. pneumoniae AI11) [micrograms per milliliter]	MIC S. pneumoniae AI14 (S. pneumoniae AI14) [micrograms per milliliter]	S. pneumonia ATCC 27336 MIC (S. pneumoniae ATCC 27336) [micrograms per milliliter]	S. pneumonia ATCC 27336 MLC (S. pneumoniae ATCC 27336) [micrograms per milliliter]	M. luteus ATCC 10240 MIC (M. luteus ATCC 10240 [1]) [micrograms per milliliter]	M. luteus ATCC 10240 MLC (M. luteus ATCC 10240 [1]) [micrograms per milliliter]	MIC S. pneumoniae AI8 (S. pneumoniae AI8) [micrograms per milliliter]	S. aureus ATCC 25923 MIC (S. aureus ATCC 25923) [micrograms per milliliter]	S. aureus ATCC 25923 MLC (S. aureus ATCC 25923) [micrograms per milliliter]	C. accolens KPL 1818 MIC (C. accolens KPL 1818) [micrograms per milliliter]	C. accolens KPL 1818 MLC (C. accolens KPL 1818) [micrograms per milliliter]	zone of inhibition / inhibitory activity in deferred antagonism assay (M. luteus ATCC 10240 [2])	MIC S. pneumoniae AI17 (S. pneumoniae AI17) [micrograms per milliliter]
fluorescein labeled nisin: nisin containing a C-terminal conjugate of fluorescein (ITSISLCTPGCKTGALMGCNMKTATCHCSIHVSK-fluorescein; ends and bridges not checked; also: lantibiotic thioether (lanthionine) rings and dehydrated residues, places not given here; UniProt P13068 24-57, looked up)	large green patches on the cell surface	binds and abducts lipid II to form patches	–	–	–	–	–	–	–	–	–	–	–	–	–	–	–	–
T14A: core peptide mutant of mutacin 1140, Threonine 14 replaced by Alanine (FKSWSLCTPGCARAGSFNSYCC; UniProt O68586 42-63, looked up, variant T14A) [Mutant T14A]	–	–	0.25	0.25	8	4	2	0.5	0.5	0.125	0.125	8	8	16	0.5	2	no change in activity	8
T14G: core peptide mutant of mutacin 1140, Threonine 14 replaced by Glycine (FKSWSLCTPGCARGGSFNSYCC; not fully specified; ends and bridges not checked; UniProt O68586 42-63, looked up, variant T14G) [Mutant T14G]	–	–	0.0625	0.0625	8	2	1	0.5	0.5	0.0625	0.0625	8	>32	>32	0.25	0.5	–	8
